Experiment [1] has as its system CD8-cDCs. The experiment can be described thus: In vitro stimulation of sorted splenic CD8- cDCs, IFN-λ ELISA. As to conditions: 5×10^5/ml, IL-3 and GM-CSF, 18 h. It counts as cell-based, mouse. From the text:
(§1) DC subsets were isolated from pooled mouse spleens as described (Vremec et al., 2007). Briefly, spleens were chopped, digested with collagenase (Worthington Biochemical) and DNase (Roche) at room temperature, and treated with EDTA. Low-density cells were enriched by density centrifugation; non-DC lineage cells were coated with mAbs (anti-CD3, KT3-1.1; anti-Thy-1, T24/31.7; anti Gr-1, 1A8; anti-CD19, ID3; anti-erythrocytes, TER119 and anti-NK cells, DX5) and depleted using anti-rat Ig magnetic beads (Qiagen). Dead cells were excluded by propidium iodide staining. cDC populations were sorted based on the expression of CD11c, CD45RA, CD4, CD8a and CD172a and pDCs were purified based on CD11c, CD45RA, and CD172a (all BD Biosciences) expression. Cell sorting was performed on a FACS Aria instrument (BD Biosciences).
(§2) Cells were stimulated in vitro with single TLR agonists or combinations thereof containing 10 μg/ml Pam3Cys (InvivoGen), 100 μg/ml poly IC (Axxora), 10 μg/ml LPS (E. coli; Sigma-Aldrich or Axxora), 10 μg/ml R848 (Axxora), 1 μM CpG-1668 or CpG-2216 (TIB-Molbiol), 1 μg/ml profilin of toxoplasma (Axxora). […] IFN-λ in supernatants was analyzed by ELISA and IL-12p70 was determined by FlowCytomix bead assay (Bender Medsystems) according to manufacturer's protocol.
(In general: ELISA stands for enzyme-linked immunosorbent assay.)

Experiment [2] has as its system splenocytes. The experiment can be described thus: Spleen cell fractions separated after in vivo injection, cultured 18 h, IFN-λ in supernatant. The arrangement: species or system mouse. The note with it: spleens 1.5-2 h after i.v. injection, magnetic bead separation, 18 h culture. On the procedure:
1.5-2 h after i.v. injection of poly IC spleens were harvested and processed. Cell free supernatants were analyzed for IFN-λ after in vitro culture for 18 h. (A) 5×10^6 cells/ml total spleen cells or cells separated by density centrifugation into light density cells or heavy density cells. (B) total spleen cells 25×10^6 cells/ml of WT or CD11c-DTR-tg mice treated 2 days before with diphtheria toxin (DT). (C) Total spleen cells before separation or after magnetic bead separation into the denoted populations. The initial cell number of splenocytes added onto the column was 20×10^6. Without further counting each fraction was distributed into 2 wells with 200 μl medium/well. Bars represent the mean±SD of 2 independent experiments (A+C) or 1 experiment (B) using 2 mice per experiment.
Spleen cells 1.5 h after in vivo injection with DISC HSV-1 were separated with anti-CD45R and magnetic beads into positive and negative fractions. The CD45R negative fraction was further separated into cells positive or negative for CD8α. Separated cells were cultured in vitro for the next 18 h and cell-free supernatants were analyzed for IFN-λ.^˜ Bars represent the mean±SD of 2 independent experiments using one mouse per experiment.

Experiment [3] deals with BDCA3+ DC. The experiment can be described thus: Stimulation of human BDCA3+ DC, IFN-λ1 and IFN-λ2 ELISA. It is filed as cell-based. As to conditions: BDCA3 positive cells vs BDCA1 cells, all donors, 100 μg/ml, 18-24 h. On the procedure:
(§3) PBMC were prepared from peripheral blood of non-atopic blood donors by density gradient centrifugation and BDCA3+ DC were purified from PBMC using the BDCA3/CD141+Dendritic Cell Isolation Kit (Miltenyi Biotech) on an AutoMACS™ separator. Subsequently, BDCA1+ DC were purified from the BDCA3-depleted PBMC using the BDCA1/CD1c+ Dendritic Cell Isolation Kit (Miltenyi Biotech). […] After stimulation for 18-24 h the supernatants were analyzed for IFN-λ1 and IFN-λ2 by ELISA according to manufacturer's recommendations (Tebu-bio).

Experiment [4] relates to PBMC. The experiment can be described thus: Stimulation of human PBMC, IFN-λ1 and IFN-λ2 ELISA. It counts as cell-based. As to conditions: PBMCs and fractions of DC-enriched PBMCs, IL-3, GM-CSF and IFN-γ, 18-24 h. On the procedure: as §3
The subject of experiment [5] is mice. The experiment can be described thus: In vivo challenge (i.v.), serum IFN-λ and IFN-α by ELISA. On the set-up: species or system mouse. The note with it: 100 μg i.v.
For experiment [6], the system named is splenic CD8+ cDC. The experiment can be described thus: In vitro stimulation of sorted splenic CD8+ cDCs, cytokines in supernatant (IFN-λ ELISA, IL-12p70 FlowCytomix). As to conditions: 5×10^5/ml, IL-3 and GM-CSF, supernatants after 18 h. It is filed as cell-based, mouse.
Excerpt: as §1
Cells were stimulated in vitro with single TLR agonists or combinations thereof containing 10 μg/ml Pam3Cys (InvivoGen), 100 μg/ml poly IC (Axxora), 10 μg/ml LPS (E. coli; Sigma-Aldrich or Axxora), 10 μg/ml R848 (Axxora), 1 μM CpG-1668 or CpG-2216 (TIB-Molbiol), 1 μg/ml profilin of toxoplasma (Axxora). The recombinant cytokines mouse-IL-3, mouse-IL-4, rat-IFN-γ (PeproTech) and mouse-GM-CSF (Tebu-Bio) (10 ng/ml each) were added as indicated. The addition of IL-3 and GM-CSF was based on previous observations that GM-CSF promoted the production of IL-12p70 and that the combination of IL-3 and GM-CSF increased virus induced IFN-λ production in pDCs and cDCs (Hochrein et al., 2000; Hochrein et al., 2004). As source of a parapoxvirus Zylexis, which is used for veterinary purposes was purchased from a pharmacy. HSV-1, in replication deficient form known as disc HSV-1 (HSV-1d) was used as described (Hochrein et al., 2004). IFN-λ in supernatants was analyzed by ELISA and IL-12p70 was determined by FlowCytomix bead assay (Bender Medsystems) according to manufacturer's protocol.

Experiment [7] deals with total non parenchymal liver cells. The experiment can be described thus: In vitro stimulation of total non parenchymal liver cells, IFN-λ and IL-12p70. It counts as cell-based, mouse. The note with it: liver cells from WT mice, 2.5×10^6/ml, IL-3+IL-4+IFN-γ+GM-CSF, 18 h. On the procedure:
FIGS. 3A and B depict that FL is involved in the production of IFN-λ in vivo. (A) Isolated total non parenchymal liver cells 2.5×10^6/ml were stimulated in the presence of IL-3+IL-4+IFN-γ+GM-CSF with the stimuli as indicated. After 18 h supernatants were analyzed for IFN-λ and IL-12p70. Representative results of 3 experiments are shown. Data represent mean+/−SD of duplicate samples. (B) WT and FL-KO mice were injected i.v. with 100 μg poly IC. After 3-4 h sera were analyzed for IFN-λ and IFN-α. Circles indicate the results of individual mice and columns represent the mean thereof.
as §2, with “(Axxora). The recombinant cytokines mouse-IL-3, mouse-IL-4, rat-IFN-γ (PeproTech) and mouse-GM-CSF (Tebu-Bio) (10 ng/ml each) were added as indicated.” for “(Axxora).”, “protocol. […]” for “protocol.”

Experiment [8] relates to splenic pDCs. The experiment can be described thus: In vitro stimulation of sorted splenic pDCs, IFN-λ ELISA. As to conditions: 5×10^5/ml, IL-3 and GM-CSF, 18 h. It is filed as cell-based, mouse.
Excerpt: as §1, §2

“Also recorded” adds a separate entry of the source.

In the case of “Polyinosinic:polycytidylic acid [poly IC]”, the IFN-λ production entry in experiment [1] was “largely unable to participate in IFN-λ production”; in experiment [6], “major producers; also recorded: induced IFN-λ”; in experiment [7], “produced IFN-λ”; in experiment [8] it was “largely unable to participate in IFN-λ production”. Moreover, the “splenocyte fraction with which IFN-λ production separates” value in experiment [2] is listed as “separates with CD45R−/CD11c+/CD8α+ splenocytes”. For the same substance, in experiment [3], the IFN-λ1 production result is “major producers”. For the same substance, the IFN-λ2 production result in experiment [3] is listed as “major producers”. For the same substance, in experiment [4], the “IFN-λ1 (IL-29) production” value is on record as “induced”. For the same substance, in experiment [4], the “IFN-λ2 (IL-28A) production” value was “induced”. In addition, the “serum IFN-α” value in experiment [5] (Cardif-KO mice, 3-4 h) is “complete abrogation of serum IFN-α”; in experiment [5] (IRF7-KO mice, 3-4 h), “almost abrogated”; in experiment [5] (MyD88-KO mice, 3-4 h) it was “Large amounts”; in experiment [5] (TLR3-KO mice, 3-4 h), “no effect on the production of IFN-α”. Further, the “serum IFN-λ” value is listed as “no effects on IFN-λ production” in experiment [5] (Cardif-KO mice, 3-4 h) and “Large amounts” in experiment [5] (MyD88-KO mice, 3-4 h). The “Serum levels of IFN-α” value is recorded as “remained easily detectable” in experiment [5] (FL-KO mice, 3-4 h) and “easily detectable; also recorded: Large amounts” in experiment [5] (WT mice, sera after 3-4 h). For the same substance, the “systemic production of IFN-α” value in experiment [5] (IFN-AR-KO vs WT mice, 3-4 h) is listed as “largely dependent on the presence of IFN-AR”. Further, the “systemic production of IFN-λ” value in experiment [5] (IFN-AR-KO vs WT mice, 3-4 h) is “largely dependent on the presence of IFN-AR”. Also, in experiment [6], the IL-12p70 production result was “not IL-12p70 production”.

The values are drawn from US9090897B2, “Production of IFN-lambda by conventional dendritic cells” (Bavarian Nordic A/S, priority 2009, dated 2015).
